US20210387996A1, “TRICYCLIC COMPOUNDS FOR THE TREATMENT AND PROPHYLAXIS OF HEPATITIS B VIRUS DISEASE” (priority 2018, published 2021)

What was measured:
[1] = test system: HBeAg level in HepDES19 cells (surrogate marker for cccDNA); test: Engineered HepDES19 primary screen assay (HBeAg as surrogate marker for cccDNA); assay type: cell-based, HBV; settings: Hepatitis B virus, HepDES19, 120 h, read-out: IC50 (HBeAg level, HepDES19 primary screen assay)
Excerpt: The assay was employed to screen for novel cccDNA inhibitors. HepDES19 is a cccDNA-producing cell line. In this cell line, HBeAg in the cell culture supernatant as surrogate marker, as HBeAg production depends on cccDNA level and activity. HepDES19 is an engineered cell line which contains a 1.1 unit length HBV genome, and pgRNA transcription from the transgene is controlled by Tetracycline (Tet). In the absence of Tet, pgRNA transcription will be induced, but HBV e antigen (HBeAg) could not be produced from this pgRNA due to very short leader sequence before the HBeAg start codon and the start codon is disrupted. Only after cccDNA is formed, the missing leader sequence and start codon mutation would be restored from the 3′-terminal redundancy of pgRNA, and then HBeAg could be synthesized. Therefore, HBeAg could be used as a surrogate marker for cccDNA (Zhou, T. et al., Antiviral Res. (2006), 72(2), 116-124; Guo, H. et al., J. Virol. (2007), 81(22), 12472-12484).
HepDES19 cells were seeded at 2×10^6 cells per T150 flask and cultured with the culture medium (Dulbecco's Modified Eagle Medium: Nutrient Mixture F-12 [DMEM-F12, Gibco Cat. 11320-82], 10% Fetal Bovine Serum [FBS, Clontech Cat. 631101], 0.1 mM Non-Essential Amino Acids Solution [NEAA, Gibco Cat. 11140-050], 50 μg/mL Penicillin-Streptomycin [PS, Invitrogen Cat. 15140-163], 500 μg/mL Geneticin [G418, Invitrogen Cat. 10131-027]) containing 3 μg/mL Tet (Sigma, Cat. 87128) for 5 days. Cells were then seeded at 4×10^6 cells per T150 in the same culture medium as described above in the absence of Tet for 8 days. Cells were then harvested and frozen at density of 2×10^6 cells per mL. For compound testing, the frozen cells were thawed and seeded into 96-well plates at a density of 6×10^4 cells per well. At 24 hours after seeding, half log serial dilutions of compounds made with Dimethyl sulfoxide (DMSO, Sigma, Cat. D2650) were further diluted with the same culture medium as described above before they were added to the cells to reach desired final compound concentrations and 1% DMSO concentration. Plates were then incubated at 37° C. for another 5 days before measurement of HBeAg level and cell viability. Intracellular HBeAg level were measured with enzyme-linked immunosorbent assay (ELISA) kit (Shanghai Kehua Diagnostic Medical Products Co., Ltd). Cell viability was assessed using Cell Counting Kit-8 (Donjindo, Cat. CK04-20). IC50 values were derived from the dose-response curve using 4 parameter logistic curve fit method.
The compounds of the present invention were tested for their capacity to inhibit extracellular HBeAg level as described herein.

[2] = test system: HBV (extracellular HBsAg) in PHH; test: Cryopreserved primary human hepatocytes (PHH) HBV infection assay, extracellular HBsAg (CLIA); assay type: cell-based; settings: Hepatitis B virus, Hepatocyte, 216 h, read-out: HBsAg IC50
Experimental: This assay is used to confirm the anti-HBV effect of the compounds in HBV PHH infection assay. Cryopreserved PHH (BioreclamationIVT, Lot YJM) was thawed at 37° C. and gently transferred into pre-warmed InVitroGRO HT medium (BioreclamationIVT, Cat. S03317). The mixture was centrifuged at 70 relative centrifugal force (RCF) for 3 mins at RT, and the supernatant was discarded. Pre-warmed InVitroGRO CP medium (BioreclamationIVT, Cat #S03316) was added to the cell pellet to gently re-suspend cells. The cells were seeded at the density of 5.8×10^4 cells per well to collagen I coated 96-well plate (Gibco, Cat. A1142803) with the InVitroGRO CP medium. All plates were incubated at 37° C. with 5% CO2 and 85% humidity.
At 20 hours after plating, the medium was changed to PHH culture medium (Dulbecco's Modified Eagle Medium (DMEM)/F12 (1:1) (Gibco, Cat. 11320-033), 10% fetal bovine serum (Gibco Cat. 10099141), 100 U/mL penicillin, 100 μg/mL streptomycin (Gibco, Cat. 151401-122), 5 ng/mL human epidermal growth factor (Invitrogen Cat. PHG0311L), 20 ng/mL dexamethasone (Sigma, Cat. D4902) and 250 ng/mL human recombinant insulin (Gibco, Cat. 12585-014)). And the cells were incubated at 37° C. with 5% CO2 and 85% humidity for 4 hours. The medium was then changed to pre-warmed PHH culture medium containing 4% polyethylene glycol (PEG) MW8000 (Sigma, Cat. P1458-50ML) and 1% DMSO (Sigma, Cat. D2650). 5.8×10^6 genomic equivalents of HBV were added into the medium.
At 24 hours post-infection, the cells were gently washed with PBS and refreshed with PHH culture medium supplemented with 1% DMSO, and 0.25 mg/mL Matrix gel (Corning, Cat. 356237) at 200 μL per well. All plates were immediately placed in at 37° C. CO2 incubator.
24 hours later, serial dilutions of compounds made with DMSO were further diluted with the same culture medium (PHH culture medium supplemented with 1% DMSO and 0.25 mg/mL Matrix gel as described above) before they were added to the cells to reach desired final compound concentrations and 1% DMSO concentration. The medium containing the compounds were refreshed every three days.
At 9 days post-compound treatment, extracellular HBsAg level were measured with Chemiluminescence Immuno Assay (CLIA) kit (Autobio, HBsAg Quantitative CLIA). Extracellular HBV DNA was extracted by MagNA Pure 96 system (Roche) and then determined by quantitative PCR with the following primers and probe: […]
HBsAg IC50 and HBV DNA IC50 values were derived from the dose-response curve using 4 parameter logistic curve fit method. The compounds of formula (I) have HBsAg IC50<20 μM, particularly <1 μM; and HBV DNA IC50<50 μM.

Compound | IC50 [1] | IC50 [2]
O=C1c2oc3c(Cl)cccc3c(=O)c2CCN1c1ccc(Cl)c(C(F)(F)F)c1 [Example 22, 9-chloro-2-(4-chloro-3-(trifluoromethyl)phenyl)-3,4-dihydro-2H-chromeno[2,3-c]pyridine-1,5-dione] | 25.6 µM | 3.44 µM
O=C1c2oc3c(Cl)cccc3c(=O)c2CCN1c1ccc(Cl)c(Cl)c1 [Example 28, 9-chloro-2-(3,4-dichlorophenyl)-3,4-dihydro-2H-chromeno[2,3-c]pyridine-1,5-dione] | 1.08 µM | 0.57 µM
CC(C)(C)OC(=O)N1CCc2c(oc3c(Cl)cccc3c2=O)C1 [Example 1, tert-butyl 9-chloro-5-oxo-3,4-dihydro-1H-chromeno[2,3-c]pyridine-2(5H)-carboxylate] | 9.12 µM | 10.6 µM
O=C1c2oc3c(Cl)cccc3c(=O)c2CCN1c1ccccc1 [Example 19, 9-chloro-2-phenyl-3,4-dihydro-2H-chromeno[2,3-c]pyridine-1,5-dione] | 0.56 µM | 16.9 µM
O=C1c2oc3c(Cl)cccc3c(=O)c2CCN1c1ccc(Cl)cc1 [Example 12, 9-chloro-2-(4-chlorophenyl)-3,4-dihydro-1H-chromeno[2,3-c]pyridine-1,5(2H)-dione] | 0.82 µM | 2.76 µM
O=C1c2oc3c(Cl)cccc3c(=O)c2CCN1c1ccc(Cl)cc1F [Example 29, 9-chloro-2-(4-chloro-2-fluorophenyl)-3,4-dihydro-2H-chromeno[2,3-c]pyridine-1,5-dione] | 2.36 µM | 2.17 µM
O=C1c2oc3c(Cl)cccc3c(=O)c2CCN1c1ccc(F)cc1 [Example 14, 9-chloro-2-(4-fluorophenyl)-3,4-dihydro-2H-chromeno[2,3-c]pyridine-1,5-dione] | 2.07 µM | 9.85 µM
O=c1c2c(oc3c(Cl)cccc13)CN(c1ccc(C(F)(F)F)cc1)CC2 [Example 39, 9-chloro-2-(4-(trifluoromethyl)phenyl)-1,2,3,4-tetrahydro-5H-chromeno[2,3-c]pyridin-5-one] | 0.96 µM | 5.65 µM
COc1ccc(N2CCc3c(oc4c(Cl)cccc4c3=O)C2=O)cc1 [Example 9, 9-chloro-2-(4-methoxyphenyl)-3,4-dihydro-1H-chromeno[2,3-c]pyridine-1,5(2H)-dione] | 2.73 µM | 3.52 µM
COc1cccc(N2CCc3c(oc4c(Cl)cccc4c3=O)C2)c1 [Example 41, 9-chloro-2-(3-methoxyphenyl)-1,2,3,4-tetrahydro-5H-chromeno[2,3-c]pyridin-5-one] | 19.2 µM | 30.7 µM
Cn1cc(N2CCc3c(oc4c(Cl)cccc4c3=O)C2=O)cn1 [Example 35, 9-chloro-2-(1-methyl-1H-pyrazol-4-yl)-3,4-dihydro-2H-chromeno[2,3-c]pyridine-1,5-dione] | 46.9 µM | 10.5 µM
O=C1c2oc3c(Cl)cccc3c(=O)c2CN1c1ccc(Cl)cc1 [Example 51, 5-chloro-2-(4-chlorophenyl)-1H-chromeno[2,3-c]pyrrole-3,9-dione] | 5.46 µM | 5.8 µM
O=C1c2oc3c(Cl)cccc3c(=O)c2CCN1c1ccc(Cl)cc1C(F)(F)F [Example 27, 9-chloro-2-(4-chloro-2-(trifluoromethyl)phenyl)-3,4-dihydro-2H-chromeno[2,3-c]pyridine-1,5-dione] | 0.89 µM | 13 µM
O=C(O)C1CC(Oc2cc(Cl)ccc2N2CCc3c(oc4c(Cl)cccc4c3=O)C2=O)C1 (centres unmarked) [Example 26, 3-(5-chloro-2-(9-chloro-1,5-dioxo-1,3,4,5-tetrahydro-2H-chromeno[2,3-c]pyridin-2-yl)phenoxy)cyclobutane-1-carboxylic Acid] | – | 18.1 µM
COc1cc(Cl)ccc1N1CCc2c(oc3c(Cl)cccc3c2=O)C1=O [Example 17, 9-chloro-2-(4-chloro-2-methoxyphenyl)-3,4-dihydro-2H-chromeno[2,3-c]pyridine-1,5-dione] | 2.4 µM | 14.7 µM
O=C1c2oc3c(Cl)cccc3c(=O)c2CCN1c1ccccc1OC(F)(F)F [Example 23, 9-chloro-2-(2-(trifluoromethoxy)phenyl)-3,4-dihydro-2H-chromeno[2,3-c]pyridine-1,5-dione] | 6.88 µM | 16.5 µM
O=C1c2oc3c(Cl)cccc3c(=O)c2CCN1c1ccc(Cl)nc1 [Example 16, 9-chloro-2-(6-chloropyridin-3-yl)-3,4-dihydro-2H-chromeno[2,3-c]pyridine-1,5-dione] | 34.4 µM | 3.17 µM
COc1ccc(N2CCc3c(oc4c(Cl)cccc4c3=O)C2)cc1 [Example 40, 9-chloro-2-(4-methoxyphenyl)-1,2,3,4-tetrahydro-5H-chromeno[2,3-c]pyridin-5-one] | 5.9 µM | 11.6 µM
O=C(O)C1CC(Oc2ccccc2N2CCc3c(oc4c(Cl)cccc4c3=O)C2=O)C1 (centres unmarked) [Example 25, 3-(2-(9-chloro-1,5-dioxo-1,3,4,5-tetrahydro-2H-chromeno[2,3-c]pyridin-2-yl)phenoxy)cyclobutane-1-carboxylic Acid] | – | 48.4 µM
O=C1c2oc3c(Cl)cccc3c(=O)c2CCN1c1ccc(F)c(C(F)(F)F)c1 [Example 18, 9-chloro-2-(4-fluoro-3-(trifluoromethyl)phenyl)-3,4-dihydro-2H-chromeno[2,3-c]pyridine-1,5-dione] | 14 µM | 2.84 µM
O=C1c2oc3c(Cl)cccc3c(=O)c2CCN1c1ccc(C(F)(F)F)cc1 [Example 20, 9-chloro-2-(4-(trifluoromethyl)phenyl)-3,4-dihydro-2H-chromeno[2,3-c]pyridine-1,5-dione] | 5.68 µM | 7.4 µM
COc1ccc(CN2CCc3c(oc4c(Cl)cccc4c3=O)C2=O)cc1 [Example 5, 9-chloro-2-[(4-methoxyphenyl)methyl]-3,4-dihydrochromeno[2,3-c]pyridine-1,5-dione] | 26 µM | –
